Assay results published in US20130209543A1, “ENHANCED TREATMENT REGIMENS USING MTOR INHIBITORS” (Intellikine LLC, priority 2011, published 2013).

Assay: Phase I clinical trial: safety, related treatment-emergent adverse events, patients n (%)
Format: in vivo
Protocol: Safety, maximum tolerated dose (MTD), pharmacokinetics (PK) and preliminary antitumor activity were evaluated.
Pharmacodynamic (PD) endpoints were evaluated in surrogate (peripheral blood cells [PBCs], skin) and tumor tissues for the phosphorylation of TORC1-dependent markers (4EBP1/S6), and TORC2-dependent markers (AKT/PRAS40).

## CC(C)n1nc(-c2ccc3oc(N)nc3c2)c2c(N)ncnc21 [compound A]
6 mg/3W, N = 3
  Asthenia: 0 (0%)
  Asthenia (second line): 0 (0%)
  Catheter site inflammation: 0 (0%)
  Catheter site pain: 0 (0%)
  Decreased appetite: 0 (0%)
  Diarrhoea: 0 (0%)
  Dry skin: 0 (0%)
  Dysgeusia: 0 (0%)
  Dyspnoea: 0 (0%)
  Fatigue: 0 (0%)
  Headache: 0 (0%)
  Hypercholesterolaemia: 0 (0%)
  Hypertransaminasaemia: 0 (0%)
  Hypertriglyceridaemia: 0 (0%)
  Hypomagnesaemia: 0 (0%)
  Hypotension: 0 (0%)
  Low fever: 0 (0%)
  Lymphopenia: 0 (0%)
  Palmar-plantar erythrodysaesthesia syndrome: 0 (0%)
  Patients Reporting at Least One Related TEAE: 3 (100%)
  Pyrexia: 0 (0%)
  Rash macular: 0 (0%)
  Urinary tract infection: 0 (0%)
7 mg/5W, N = 3
  Nausea: 0 (0%)
  Nausea (second line): 1 (33%)
  Urine tract infection: 0 (0%)
  Vomiting: 0 (0%)
7 mg/week, N = 3
  Patients Reporting at Least One Related TEAE: 3 (100%)
9 mg/3W, N = 5
  Alanine aminotransferase increased: 0 (0%)
  Asthenia: 1 (20%)
  Asthenia (second line): 0 (0%)
  Catheter site inflammation: 0 (0%)
  Catheter site pain: 0 (0%)
  Decreased appetite: 0 (0%)
  Diarrhoea: 1 (20%)
  Dry skin: 1 (20%)
  Dysgeusia: 0 (0%)
  Dyspnoea: 1 (20%)
  Fatigue: 0 (0%)
  Headache: 0 (0%)
  Hyperbilirubinaemia: 0 (0%)
  Hypercholesterolaemia: 1 (20%)
  Hyperglycaemia: 1 (20%)
  Hypertransaminasaemia: 1 (20%)
  Hypertriglyceridaemia: 1 (20%)
  Hypomagnesaemia: 1 (20%)
  Hypotension: 1 (20%)
  Low fever: 0 (0%)
  Lymphopenia: 1 (20%)
  Mucosal inflammation: 2 (40%)
  Nausea: 2 (40%)
  Palmar-plantar erythrodysaesthesia syndrome: 1 (20%)
  Patients Reporting at Least One Related TEAE: 4 (80%)
  Platelet count decreased: 0 (0%)
  Pruritus: 2 (40%)
  Pyrexia: 0 (0%)
  Rash: 3 (60%)
  Rash macular: 0 (0%)
  Urinary tract infection: 1 (20%)
  Vomiting: 2 (40%)
10 mg/5W, N = 3
  Diarrhoea: 0 (0%)
  Nausea (second line): 0 (0%)
  Rash: 0 (0%)
10 mg/week, N = 3
  Mucosal inflammation: 0 (0%)
12 mg/3W, N = 3
  Alanine aminotransferase increased: 0 (0%)
  Asthenia (second line): 0 (0%)
  Diarrhoea: 0 (0%)
  Dry skin: 0 (0%)
  Dyspnoea: 0 (0%)
  Fatigue: 0 (0%)
  Headache: 0 (0%)
  Hyperbilirubinaemia: 0 (0%)
  Hypercholesterolaemia: 0 (0%)
  Hypertransaminasaemia: 0 (0%)
  Hypertriglyceridaemia: 0 (0%)
  Hypomagnesaemia: 0 (0%)
  Hypotension: 0 (0%)
  Low fever: 0 (0%)
  Lymphopenia: 0 (0%)
  Palmar-plantar erythrodysaesthesia syndrome: 0 (0%)
  Platelet count decreased: 0 (0%)
  Pyrexia: 0 (0%)
  Rash: 0 (0%)
  Urinary tract infection: 0 (0%)
  Vomiting: 0 (0%)
15 mg/week, N = 3
  Patients Reporting at Least One Related TEAE: 3 (100%)
16 mg/3W, N = 3
  Alanine aminotransferase increased: 0 (0%)
  Asthenia (second line): 1 (33%)
  Catheter site inflammation: 0 (0%)
  Catheter site pain: 0 (0%)
  Decreased appetite: 0 (0%)
  Dry skin: 0 (0%)
  Dysgeusia: 0 (0%)
  Dyspnoea: 0 (0%)
  Hyperbilirubinaemia: 0 (0%)
  Hypercholesterolaemia: 0 (0%)
  Hypertransaminasaemia: 0 (0%)
  Hypertriglyceridaemia: 0 (0%)
  Hypomagnesaemia: 0 (0%)
  Hypotension: 0 (0%)
  Lymphopenia: 0 (0%)
  Nausea: 0 (0%)
  Palmar-plantar erythrodysaesthesia syndrome: 0 (0%)
  Platelet count decreased: 0 (0%)
  Pruritus: 0 (0%)
  Rash: 0 (0%)
  Rash macular: 0 (0%)
  Urinary tract infection: 0 (0%)
  Vomiting: 0 (0%)
20 mg Q3D
  Dose limiting toxicity: Mucositis
30 mg/week, N = 3
  Nausea: 3 (100%)
  Patients Reporting at Least One Related TEAE: 3 (100%)
40 mg QW
  Dose limiting toxicity: Asthenia
40 mg QW, 20 mg QD×3d QW and 13 mg QD×5d QW cohorts
  Dose limiting toxicities: Grade (G) 3 asthenia and G3 mucositis
Total QD Dosing, N = 25
  Catheter site inflammation: 0 (0%)
  Catheter site pain: 0 (0%)
  Diarrhea: 0 (0%)
  Fatigue: 0 (0%)
  Headache: 0 (0%)
  Hyperbilirubinaemia: 0 (0%)
  Hypertransaminasaemia: 0 (0%)
  Hypertriglyceridaemia: 0 (0%)
  Hypomagnesaemia: 0 (0%)
  Hypotension: 0 (0%)
  Low fever: 0 (0%)
  Malaise: 0 (0%)
  Nausea: 0 (0%)
  Oral discomfort: 0 (0%)
  Palmar-plantar erythrodysaesthesia syndrome: 0 (0%)
  Platelet count decreased: 0 (0%)
  Pyrexia: 0 (0%)
  Rash: 0 (0%)
  Rash macular: 0 (0%)
  Urinary tract infection: 0 (0%)
  Urine tract infection: 0 (0%)
  Vomiting: 0 (0%)
  Weakness: 0 (0%)
Total QDx3d QW, N = 14
  Asthenia (second line): 1 (7%)
  Coagulopathy: 0 (0%)
  Confusional state: 0 (0%)
  Cough: 0 (0%)
  Diarrhea: 0 (0%)
  Dizziness: 0 (0%)
  Dyspnoea exertional: 0 (0%)
  Eye infection: 0 (0%)
